Series [1] relates to protoplasts from wild type tobacco. The series can be described thus: Quantitative analysis of auxin mediated cell expansion of immobilised tobacco protoplasts (automated imaging). It counts as cell-based. The following applies: auxin 0 to 50 μM, at least 200 cells per group. The text has this: We compared the effect of auxin concentration on cell elongation over a continuous period (4-6 days) using tobacco leaf protoplasts from wild type tobacco and from the tobacco line overexpressing AtPIN8 translationally fused with Venus fluorescent marker protein (PIN8VenusOx). Two strategies were used: • effect of PIN5 and PIN8 expression on cell elongation using transient transformation with dried DNA, protoplast immobilization and culture with manual cell imaging and tracking. • effect of auxin concentration (0, 1 pM, 10 pM, 100 pM, 500 pM, 1 nM, 10 nM, 100 nM, 500 nM, 1 μM, 2.5 μM, 5 μM, 10 μM, 25 μM and 50 μM) and quantitative analysis of cell elongation to compare wild type and PIN8VenusOx protoplasts using automated imaging (every 24 h for 4 days, 5 reference points) and computational image analysis.
Protoplasts were isolated and immobilized using our procedure described in the current patent application. Culture medium with final auxin concentration of 0, 1 pM, 10 pM, 100 pM, 500 pM, 1 nM, 10 nM, 100 nM, 500 nM, 1 μM, 2.5 μM, 5 μM. 10 μM. 25 μM and 50 μM was used for washing steps and cell culture afterwards in corresponding wells. […] This experiment allowed to extract quantitative information for hundreds cells per group, the whole experiment was performed in a single 96-well plate. […]

The next series relates to auxin sensor construst. Kind of series: Luciferase activity measurement with auxin sensor construct (firefly/renilla ratio). It counts as cell-based. The text has this: Our further aim to combine PPTT with amiRNA and other functional screenings such as split-GFP, split-YFP etc. Since co-expression of vectors works perfect, split screenings could be done straight away using confirmed interacting pair. Transformation with the luciferase reporter and subsequent luciferase activity measurements were successfully tested using auxin sensor construst (FIG. 19).

A further series deals with PIN1. Kind of series: Expression of amiR^PIN1 in stable transgenic lines, plant phenotypes. It counts as in vivo, Arabidopsis (Col-0 wild-type background). The following applies: independent lines.

Data on three molecules can be found in patent US11261454B2, “Method for introducing a polynucleotide into non-adhesively growing plant cells” (ScreenSYS GmbH, priority 2010, dated 2022).

As to auxin, the “cell expansion of developing protoplasts” value in series [1] was “Concentration-depended cell expansion”.

`O=C(O)Cc1cccc2ccccc12` [NAA]: the “effect on firefly/renilla ratio” value with auxin sensor construst is reported as “Concentration-dependent effect”.

Turning to “amiR^P33: artificial miRNA TACGATTTGAACCATGAGGCC, SEQ ID NO:10 (expressed or natural sequence)”, in the series on PIN1 (2 weeks after germination), the “rosette leaf phenotype of transgenic plants” value is reported as “Altered phyllotaxis pattern of rosette leaves”. Besides, the “shoot phenotype of transgenic lines” value in the series on PIN1 is “Altered shoot phyllotaxis and pin1-like shoot phenotypes”.
